Assay results from US20070275936A1, “Formulations and Treatment Methods” (priority 1998, published 2007).
Entries after “also recorded” stand apart in the source; their conditions may differ.

How the values were obtained:
[1] = Accelerated stability study of BrEA and the example 1 formulations; type: physicochemical
Method: An accelerated stability study of 6 months duration is conducted using BrEA and the formulations from example 1. Samples are taken at 1, 2, 3, 4, 5, and 6 month time points and compared with the specifications listed in example 1. Real time stability (25° C., 60% relative humidity) is conducted using BrEA formulation Lots 1 and 2, with sampling time points at 3, 6, 9, 12, 18, 24, and 36 months. […] The results from the stability testing indicate that BrEA is stable for at least 3 months at elevated temperature and humidity in the Lot 1 and 2 formulations.

Plasmodium falciparum = assay: Inhibition of parasite growth in culture; type: cell-based
Method: The effect of Epi (16α-bromo-epiandrosterone) on parasite (Plasmodium falciparum) growth was shown. EPI was active at a concentration of 1 μM.
Parasitemias were determined by standard methods (microscopic inspection of at least 500 cells, stained with Diff-Quick™ (Baxter). Parasites were cultured under standard conditions in RPMI-1640 supplemented with Hepes/Glucose (10 mM), glutamine (0.3 g/liter) and 10% human plasma. The hematocrit was 1%.

Plasmodium berghei = assay: Lewis rat in vivo parasitemia study; conditions: Lewis rats
[2] = Plasma pharmacokinetics of 14C BrEA in Rhesus Monkeys; type: in vivo; conditions: 1 mg/kg s.c. 14C BrEA
Method: A pharmacokinetic analysis of ^14C BrEA in plasma was conducted in two female Rhesus Monkeys. Trace labeled compound (16α-bromo-3-beta-hydroxy-5α-[4-^14C]-androstan-17-one [50 mCi/mmole]) was used at a dose of 1 mg/kg as a subcutaneous injection in the scapular region using an injection volume of 1 mL/kg. The BrEA was formulated in 25% polyethylene glycol 300, 12.5% absolute ethanol, 5% benzyl benzoate, and qs with propylene glycol. 40 μCi were injected per animal. Blood samples were taken at 0, 0.5, 1, 2, 4, 8, and 24 hours for determination of ^14C activity. The radioactivity in the plasma rose to near peak concentration in 8 hours and remained at approximately the same level through the end of the study at 24 hours.

[3] = Pharmacokinetics of BrEA after subcutaneous dose in rabbits; type: in vivo
Method: The nonaqueous BrEA formulation of example 1 was administered as a single subcutaneous dose to rabbits. […] The circulating half-life of the drug in the plasma was about twelve hours.
A pharmacokinetic analysis of ^14C BrEA was conducted in New Zealand White rabbits. Twenty μCi of ^14C 16α-bromo-3-beta-hydroxy-5α-[4-^14C]-androstan-17-one (50 mCi/mmole) plus 1 mg/kg unlabeled BrEA was administered to each of three New Zealand White rabbits as a subcutaneous injection in the scapular region using an injection volume of 1 mL/kg. The drug was formulated in 25% polyethylene glycol 300, 12.5% absolute ethanol, 5% benzyl benzoate, and qs with propylene glycol. Blood samples were taken at 0.5, 1, 2, 4, 8, 12, 24 hours for all three animals, and at 48 hours for two of the animals. Twenty-four and 48 hours after administration, one and two animals respectively, were sacrificed, and the following organs/tissues were collected: brain, heart, kidneys, liver, lungs, skeletal muscle, spleen, and injection site muscle and skin. In addition to the organs and tissues, urine and feces were collected as well as the cage wash.
The average percentages of the administered dose in whole blood was calculated by multiplying the concentration of drug in whole blood by the assumed volume of blood in the animals, 200 mL. The amount of drug in the blood reaches a maximum at around 8 hours, and a small amount was still evident at 48 hours.

[4] = Oral administration of 14C BrEA to rats, preliminary pharmacokinetics; type: in vivo; conditions: 14C BrEA solubilized in different excipients
Method: Nonclinical studies were conducted using an oral and a subcutaneous formulation of BrEA. Rats were orally administered ^14C BrEA solubilized in different excipients to determine the levels of drug in blood and various tissues.

[5] = Animal 201, 24 hours, 1 mg/kg s.c.
[6] = Animal 301, 48 hours, 1 mg/kg s.c.
[7] = Animal 301, 48 hours, sample wt. 6 g
[8] = Animal 302, 48 hours, 1 mg/kg s.c.

C[C@]12CC[C@H](O)C[C@@H]1CC[C@@H]1[C@@H]2CC[C@]2(C)C(=O)[C@H](Br)C[C@@H]12 [BrEA, 16α-bromo-3β-hydroxy-5α-androstane-17-one]
assay potency of BrEA ([1]; after 3 months of storage at 40° C. and 75% relative humidity): at least 95 % of the label value | time BrEA is stable ([1]; elevated temperature and humidity, in the Lot 1 and 2 formulations): at least 3 months | Parasitemia after treatment (Plasmodium falciparum; 50 nM, 24 hrs, Time 0 2%, control + DMSO 8.80%): 9.90% | Parasitemia after treatment (Plasmodium falciparum; 50 nM, 48 hrs, Time 0 2%, control + DMSO 11%): 9.20% | Parasitemia after treatment (Plasmodium falciparum; 50 nM, 72 hrs, Time 0 2%, control + DMSO 8%): 8.30% | Parasitemia after treatment (Plasmodium falciparum; 1 μM, 24 hrs, Time 0 2%, control + DMSO 8.80%): 5.80% | Parasitemia after treatment (Plasmodium falciparum; 1 μM, 24 hrs, Time 0 5%, control + DMSO 5.40%): 5.70% | Parasitemia after treatment (Plasmodium falciparum; 1 μM, 48 hrs, Time 0 2%, control + DMSO 11%): 6.10% | Parasitemia after treatment (Plasmodium falciparum; 1 μM, 48 hrs, Time 0 5%, control + DMSO 3.10%): 5.50% | Parasitemia after treatment (Plasmodium falciparum; 1 μM, 72 hrs, Time 0 2%, control + DMSO 8%): 2.10% | Parasitemia after treatment (Plasmodium falciparum; 1 μM, 72 hrs, Time 0 5%, control + DMSO 5.20%): 1.60% | Parasitemia after treatment (Plasmodium falciparum; 2.5 μM, 24 hrs, Time 0 2%, control + DMSO 8.80%): 7.30% | Parasitemia after treatment (Plasmodium falciparum; 2.5 μM, 48 hrs, Time 0 2%, control + DMSO 11%): 5.80% | Parasitemia after treatment (Plasmodium falciparum; 2.5 μM, 72 hrs, Time 0 2%, control + DMSO 8%): 3.20% | Parasitemia after treatment (Plasmodium falciparum; 5 μM, 24 hrs, Time 0 2%, control + DMSO 8.80%): 5.40% | Parasitemia after treatment (Plasmodium falciparum; 5 μM, 48 hrs, Time 0 2%, control + DMSO 11%): 6% | Parasitemia after treatment (Plasmodium falciparum; 5 μM, 72 hrs, Time 0 2%, control + DMSO 8%): 1.80% | Parasitemia after treatment (Plasmodium falciparum; 10 μM, 24 hrs, Time 0 2%, control + DMSO 8.80%): 4.20% | Parasitemia after treatment (Plasmodium falciparum; 10 μM, 24 hrs, Time 0 5%, control + DMSO 5.40%): 5.60% | Parasitemia after treatment (Plasmodium falciparum; 10 μM, 48 hrs, Time 0 2%, control + DMSO 11%): 3% | Parasitemia after treatment (Plasmodium falciparum; 10 μM, 48 hrs, Time 0 5%, control + DMSO 3.10%): 0.90% | Parasitemia after treatment (Plasmodium falciparum; 10 μM, 72 hrs, Time 0 2%, control + DMSO 8%): 0% | Parasitemia after treatment (Plasmodium falciparum; 10 μM, 72 hrs, Time 0 5%, control + DMSO 5.20%): 0% | Parasitemia after treatment (Plasmodium falciparum; 50 μM, 24 hrs, Time 0 2%, control + DMSO 8.80%): 0% | Parasitemia after treatment (Plasmodium falciparum; 50 μM, 48 hrs, Time 0 2%, control + DMSO 11%): 0% | Parasitemia after treatment (Plasmodium falciparum; 50 μM, 72 hrs, Time 0 2%, control + DMSO 8%): 0% | Parasitemia after treatment (Plasmodium falciparum; 100 μM, 24 hrs, Time 0 5%, control + DMSO 5.40%): 0% | Parasitemia after treatment (Plasmodium falciparum; 100 μM, 48 hrs, Time 0 5%, control + DMSO 3.10%): 0% | Parasitemia after treatment (Plasmodium falciparum; 100 μM, 72 hrs, Time 0 5%, control + DMSO 5.20%): 0% | Parasitemia after treatment (Plasmodium falciparum; 500 μM, 24 hrs, Time 0 5%, control + DMSO 5.40%): 0% | Parasitemia after treatment (Plasmodium falciparum; 500 μM, 48 hrs, Time 0 5%, control + DMSO 3.10%): 0% | Parasitemia after treatment (Plasmodium falciparum; 500 μM, 72 hrs, Time 0 5%, control + DMSO 5.20%): 0% | concentration at which active on parasite growth (Plasmodium falciparum; P. falciparum culture): 1 µM | % RBC parasitemia (Plasmodium berghei; Day 4, high dose 60 mg/kg i.v. days 0-3, saline control 16%): 7% | % RBC parasitemia (Plasmodium berghei; Day 4, low dose 30 mg/kg i.v. days 0-3, saline control 16%): 9% | % RBC parasitemia (Plasmodium berghei; Day 11, high dose 60 mg/kg i.v. days 0-3, saline control 36%): 11% | % RBC parasitemia (Plasmodium berghei; Day 11, low dose 30 mg/kg i.v. days 0-3, saline control 36%): 12% | time for plasma radioactivity to rise to near peak concentration [2]: 8 h | Percentage of Drug in Organs: Brain [3, 5]: 0.005% | Percentage of Drug in Organs: Heart [3, 5]: 0.008% | Percentage of Drug in Organs: Kidneys [3, 5]: 0.155% | Percentage of Drug in Organs: Liver [3, 5]: 0.76% | Percentage of Drug in Organs: Lungs [3, 5]: 0.029% | Percentage of Drug in Organs: Spleen [3, 5]: 0.002% | Percentage of Drug in Organs: Skeletal muscle ([3]; Animal 201, 24 hours, sample wt. 3.8 g): 0.002% | Percentage of Drug in Organs: Skin ([3]; Animal 201, 24 hours, sample wt. 8 g): 0.008% | Percentage of Drug in Organs: Brain [3, 6]: 0.002% | Percentage of Drug in Organs: Heart [3, 6]: 0.003% | Percentage of Drug in Organs: Kidneys [3, 6]: 0.055% | Percentage of Drug in Organs: Liver [3, 6]: 0.145% | Percentage of Drug in Organs: Lungs [3, 6]: 0.019% | Percentage of Drug in Organs: Spleen [3, 6]: 0% | Percentage of Drug in Organs: Skeletal muscle [3, 7]: 0% | Percentage of Drug in Organs: Skin [3, 7]: 0.002% | Percentage of Drug in Organs: Brain [3, 8]: 0% | Percentage of Drug in Organs: Heart [3, 8]: 0.002% | Percentage of Drug in Organs: Kidneys [3, 8]: 0.050% | Percentage of Drug in Organs: Liver [3, 8]: 0.125% | Percentage of Drug in Organs: Lungs [3, 8]: 0.011% | Percentage of Drug in Organs: Spleen [3, 8]: 0% | Percentage of Drug in Organs: Skeletal muscle ([3]; Animal 302, 48 hours, sample wt. 5 g): 0% | Percentage of Drug in Organs: Skin ([3]; Animal 302, 48 hours, sample wt. 9 g): 0.004% | time of maximum amount of drug in whole blood ([3]; rabbits, 1 mg/kg s.c.): around 8 hours | drug in the liver ([3]; rabbits, 1 mg/kg s.c., 24 hours): approximately 0.8 % of the injected dose | drug in the liver ([3]; rabbits, 1 mg/kg s.c., 48 hours): ~0.12 % of the injected dose | drug in the liver, average ([3]; rabbits, 1 mg/kg s.c., average printed after the 48 hours value): 0.13% | accumulation in organs ([3]; rabbits, s.c. dose): did not accumulate to a significant extent in any major organ; also recorded: did not accumulate to a significant degree in any of the organs | route of excretion ([3]; rabbits, s.c. dose): primarily excreted in the urine | circulating half-life of the drug in the plasma ([3]; rabbits, single s.c. dose): about twelve | maximum concentration in the plasma ([3]; rabbits, single s.c. dose, at eight to twelve hours post administration): about 1.2 % of the injected dose | drug left the injection site ([3]; rabbits, single subcutaneous dose, formulation of example 1, within 24 hours): More than 90% | excreted in the feces [4]: at least 80%
